# Measurements reported in the supplement of paper PMC12420376.
# Legend:
# [1] = system: KURAMOCHI; assay: drug sensitivity score (DSS2) on cancer cell count; higher = more sensitive; extreme values may be limits of the assay; conditions: 72 h
# Method in brief: (§1)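 Screen quality was checked by Z', and a drug sensitivity score was derived in Breeze from logistic fits of the cancer cell counts. These counts were obtained by imaging at 10× (4 fields) after fixing and immunostaining for CK8/18 with Hoechst. Before that, ovarian cancer cells, alone or in 1:1 direct co-culture with lung or skin fibroblasts, had been treated for 72 h on 384-well plates acoustically pre-spotted with 528 approved and investigational compounds at 5 concentrations.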
# [2] = system: OVCAR8; assay: as above; conditions: 72 h
# Method in brief: as §1
# [3] = co-cultured fibroblast: BJHTERT
# [4] = co-cultured fibroblast: none (monoculture)
Compound,"drug sensitivity score [1, 3]",drug sensitivity score ([1]; co-cultured fibroblast: WI38),"drug sensitivity score [1, 4]","drug sensitivity score [2, 3]",drug sensitivity score ([2]; co-cultured fibroblast: WI38),"drug sensitivity score [2, 4]"
CC1(C)CCC(CN2CCN(c3ccc(C(=O)NS(=O)(=O)c4ccc(NCC5CCOCC5)c([N+](=O)[O-])c4)c(Oc4cnc5[nH]ccc5c4)c3)CC2)=C(c2ccc(Cl)cc2)C1 [Venetoclax],0 DSS,0 DSS,0 DSS,0 DSS,0 DSS,2.3 DSS
CCCS(=O)(=O)Nc1ccc(F)c(C(=O)c2c[nH]c3ncc(-c4ccc(Cl)cc4)cc23)c1F [Vemurafenib],0 DSS,0 DSS,0.8 DSS,0 DSS,1.1 DSS,1.3 DSS
Cc1cc(OCc2nnc(SC3CCCC3)n2-c2cccnc2)ccc1-c1ccc(S(C)(=O)=O)cc1 [NMS-873],9 DSS,9 DSS,8.9 DSS,5.8 DSS,4.7 DSS,10.3 DSS
Cc1cc(Nc2ncc(Cl)c(Nc3ccccc3S(=O)(=O)C(C)C)n2)c(OC(C)C)cc1C1CCNCC1 [Ceritinib],1.3 DSS,0 DSS,2.2 DSS,1.8 DSS,0 DSS,3.7 DSS
CC(C)c1cc(C(=O)N2Cc3ccc(CN4CCN(C)CC4)cc3C2)c(O)cc1O [Onalespib],13 DSS,14.6 DSS,14.9 DSS,17.4 DSS,18.5 DSS,23.5 DSS
Nc1ncnc2c1c(COc1cccc(Cl)c1)nn2C1CCOCC1,0 DSS,0 DSS,0 DSS,0 DSS,0 DSS,0 DSS
COc1cc2c(NC3CCN(C(C)C)CC3)nc(C3CCCCC3)nc2cc1OCCCN1CCCC1 [UNC0638],4.4 DSS,1.8 DSS,0 DSS,7.1 DSS,0 DSS,0.1 DSS
Cc1ccc(F)c(NC(=O)Nc2ccc(-c3cccc4[nH]nc(N)c34)cc2)c1 [Linifanib],0 DSS,0 DSS,0 DSS,0 DSS,0 DSS,0.5 DSS
C[C@]12CC[C@H](O)CC1=CC[C@@H]1[C@@H]2CC[C@]2(C)C(c3cccnc3)=CC[C@@H]12 [Abiraterone],0 DSS,0 DSS,0 DSS,0 DSS,0 DSS,0 DSS
CC[C@H](CC#N)OC(=O)N[C@@H](C)c1cccc(NC(=O)Nc2ccc(-c3cnco3)c(OC)c2)c1 [AVN944],12.7 DSS,17.5 DSS,19.4 DSS,22.4 DSS,15 DSS,26.6 DSS
COc1cc([C@@H]2c3cc4c(cc3[C@@H](O[C@@H]3O[C@@H]5CO[C@@H](C)O[C@H]5[C@H](O)[C@H]3O)[C@H]3COC(=O)[C@H]23)OCO4)cc(OC)c1O [Etoposide],11.7 DSS,13.8 DSS,16.1 DSS,11.8 DSS,13.1 DSS,13.9 DSS
CC[C@H](C)C(=O)O[C@H]1C[C@@H](C)C=C2C=C[C@H](C)[C@H](CC[C@@H]3C[C@@H](O)CC(=O)O3)[C@H]21 [Lovastatin],0.3 DSS,3.4 DSS,5.4 DSS,1.7 DSS,8.4 DSS,2.1 DSS
C[C@@H]1CN(Cc2ccc(F)cc2)[C@@H](C)CN1C(=O)c1cc2c(C(=O)C(=O)N(C)C)cn(C)c2cc1Cl [Talmapimod],1.2 DSS,0 DSS,0 DSS,2.8 DSS,0 DSS,1.4 DSS
C[C@@]1(C(=O)Nc2ccc(F)nc2)CCCN1c1nc(Nc2cc(C3CC3)n[nH]2)c2cccn2n1,13.3 DSS,5.5 DSS,10.8 DSS,11.6 DSS,13 DSS,14 DSS
COc1ccc(-c2ccc3ncc4c(c3c2)n(-c2ccc(N3CCNCC3)c(C(F)(F)F)c2)c(=O)n4C)cn1 [NVP-BGT226],18.2 DSS,19.5 DSS,18.3 DSS,19.5 DSS,12 DSS,21.7 DSS
C[C@@H]1C=C2C(=O)O[C@@H]3CC[C@H](C1)[C@]23O [Galiellalactone],6.9 DSS,8.2 DSS,3.5 DSS,0 DSS,3.9 DSS,0 DSS
Cn1cc(-c2cnn3c(N)c(Br)c([C@@H]4CCCNC4)nc23)cn1 [MK-8776],1.2 DSS,0 DSS,1.6 DSS,7.8 DSS,0.2 DSS,0 DSS
COc1nc(N)nc2c1ncn2[C@@H]1O[C@H](CO)[C@@H](O)[C@@H]1O [Nelarabine],0 DSS,0 DSS,0 DSS,1 DSS,3.4 DSS,0.3 DSS
CN(C)c1cc2c(cc1Sc1nc3c(N)nccc3n1CCNCC(C)(C)C)OCO2 [CUDC-305],12 DSS,14.9 DSS,18.4 DSS,16.5 DSS,16.7 DSS,23.2 DSS
O=C(Nc1cccnc1)N1CCC(Cc2cccc(Oc3ccc(C(F)(F)F)cn3)c2)CC1 [PF-3845],0.5 DSS,0 DSS,0 DSS,0 DSS,0 DSS,1.9 DSS
O=C1NC(=O)[C@@H](c2cn3c4c(cccc24)CCC3)[C@@H]1c1c[nH]c2ccccc12 [Tivantinib],5.4 DSS,5.9 DSS,14 DSS,4 DSS,6.4 DSS,3.8 DSS
N#Cc1ccc(COC[C@H]2O[C@@H](n3c(NCc4ccc(Cl)c(Cl)c4)nc4c(N)ncnc43)[C@H](O)[C@@H]2O)cc1,4.2 DSS,3.3 DSS,3.1 DSS,1 DSS,0 DSS,5.5 DSS
COCCNCc1ccc(-c2cc3nccc(Oc4ccc(NC(=O)C5(C(=O)Nc6ccc(F)cc6)CC5)cc4F)c3s2)nc1 [Sitravatinib],3.1 DSS,5.8 DSS,0 DSS,0 DSS,1.6 DSS,1.8 DSS
Cn1c(Nc2ccc(C(F)(F)F)cc2)nc2cc(Oc3ccnc(-c4ncc(C(F)(F)F)[nH]4)c3)ccc21 [NVP-RAF265],2.2 DSS,0.8 DSS,7.6 DSS,2.2 DSS,0 DSS,3.2 DSS
C[C@@H]1COCCN1c1cc(C2([S@](C)(=N)=O)CC2)nc(-c2cc[nH]c3nccc2-3)n1 [AZD6738],10.4 DSS,8.6 DSS,10.9 DSS,11.1 DSS,4.4 DSS,8.1 DSS
CC[C@H](Nc1ncnc2[nH]cnc12)c1nc2cccc(F)c2c(=O)n1-c1ccccc1 [Idelalisib],10.9 DSS,5.5 DSS,3.9 DSS,2.9 DSS,0 DSS,0.3 DSS

Compound,"drug sensitivity score [1, 3]",drug sensitivity score ([1]; co-cultured fibroblast: WI38),"drug sensitivity score [1, 4]","drug sensitivity score [2, 3]",drug sensitivity score ([2]; co-cultured fibroblast: WI38),"drug sensitivity score [2, 4]"
Cc1c(-c2ccc(N3CCc4cccc(C(=O)Nc5nc6ccccc6s5)c4C3)nc2C(=O)O)cnn1CC12CC3CC(CC(C3)C1)C2,3 DSS,8.2 DSS,3.8 DSS,1.6 DSS,0 DSS,1.6 DSS
CCNC(=O)CCC/C=C\C[C@@H]1[C@@H](/C=C/[C@@H](O)CCc2ccccc2)[C@H](O)C[C@@H]1O [Bimatoprost],0 DSS,0 DSS,0 DSS,0 DSS,0 DSS,0 DSS
CNc1nc(-c2ccc3c(N)n[nH]c3c2)cc(N2C[C@@H](C(=O)NC3CCCCC3)CC[C@H]2C)n1,3.2 DSS,3.1 DSS,6.5 DSS,1.3 DSS,0.1 DSS,2.8 DSS
CN1CCc2c(c3ccccc3n2Cc2ccc(C(=O)NO)cc2)C1 [Tubastatin A],0 DSS,3.3 DSS,4.6 DSS,0 DSS,4.3 DSS,5.2 DSS
CC(C)C[C@@H](C(=O)N[C@H](C(=O)OC1CCCC1)c1ccccc1)[C@H](O)C(=O)NO [Tosedostat],2 DSS,1.3 DSS,2.1 DSS,14.5 DSS,11.4 DSS,6.5 DSS
CC[C@H](C)C(=O)O[C@H]1C[C@H](O)C=C2C=C[C@H](C)[C@H](CC[C@@H](O)C[C@@H](O)CC(=O)O)[C@H]21 [Pravastatin],0 DSS,0 DSS,0 DSS,0 DSS,1.9 DSS,0 DSS
COc1ccc2[nH]cc(/C=C3\C(=O)Nc4ccc(NC(=O)CCN5CCCCC5)cc43)c2c1,7.6 DSS,9.6 DSS,9.2 DSS,4 DSS,9.8 DSS,8.6 DSS
COc1cccc2c1C(=O)c1c(O)c3c(c(O)c1C2=O)C[C@@](O)(C(=O)CO)C[C@@H]3O[C@H]1C[C@H](N)[C@@H](O)[C@H](C)O1 [Epirubicin],12.2 DSS,12.7 DSS,19.2 DSS,14.7 DSS,9 DSS,12.3 DSS
COc1cc2ncnc(Nc3ccc(F)c(Cl)c3)c2cc1OCCCN1CCOCC1 [Gefitinib],2.9 DSS,3 DSS,0 DSS,5.8 DSS,0 DSS,3.7 DSS
S=C(NCc1ccc2c(c1)OCO2)N1CCN(c2ncnc3c2oc2ccccc23)CC1 [Amuvatinib],2.5 DSS,0.5 DSS,0 DSS,8.6 DSS,0 DSS,2.2 DSS
Nc1cc(F)ccc1NC(=O)/C=C/c1cnn(C/C=C/c2ccccc2)c1 [RGFP966],3.9 DSS,6 DSS,4 DSS,1.6 DSS,0.6 DSS,4.4 DSS
CC(C)(O)CC(=O)NCCn1ccc2ncnc(Nc3ccc(Oc4cccc(C(F)(F)F)c4)c(Cl)c3)c21 [TAK-285],5.2 DSS,1.6 DSS,0.6 DSS,0.2 DSS,0 DSS,1.2 DSS
CC(C)NC(=O)COc1cccc(-c2nc(Nc3ccc4[nH]ncc4c3)c3ccccc3n2)c1 [KD025],1.2 DSS,1.3 DSS,0 DSS,5 DSS,8.3 DSS,0.3 DSS
COc1cc2c(N3CCN(C(=O)Nc4ccc(OC(C)C)cc4)CC3)ncnc2cc1OCCCN1CCCCC1 [Tandutinib],0 DSS,0 DSS,0 DSS,0 DSS,0 DSS,0 DSS
CCOc1cc2ncc(C#N)c(Nc3ccc(OCc4ccccn4)c(Cl)c3)c2cc1NC(=O)/C=C/CN(C)C [Neratinib],9 DSS,3.6 DSS,1.4 DSS,7 DSS,3 DSS,6 DSS
CON(C)C(=O)N1N=C(c2cc(F)ccc2F)S[C@@]1(CCCN)c1ccccc1 [Filanesib],21.4 DSS,22.4 DSS,16.2 DSS,21.9 DSS,32.9 DSS,29.3 DSS
CCOCc1nc2c(N)nc3ccccc3c2n1CC(C)(C)O [Resiquimod],0 DSS,0 DSS,6.7 DSS,0.3 DSS,0 DSS,0 DSS
CNC(=O)c1cc(Oc2ccc(NC(=O)Nc3ccc(Cl)c(C(F)(F)F)c3)cc2)ccn1 [Sorafenib],0 DSS,0 DSS,0 DSS,0 DSS,0 DSS,0 DSS
Cc1nc(Nc2n[nH]c3c2CN(C(=O)N[C@H](CN(C)C)c2ccccc2)C3(C)C)c2sccc2n1,21 DSS,24.6 DSS,19.4 DSS,20.8 DSS,9.4 DSS,15.5 DSS
COCC[n+]1c2c(n(Cc3cnccn3)c1C)C(=O)c1ccccc1C2=O [Sepantronium bromide],40.7 DSS,30 DSS,30.5 DSS,37.1 DSS,35.5 DSS,29.9 DSS
CC(C)(C)c1cc(NC(=O)Nc2ccc(Oc3ccnc4[nH]c(=O)cnc34)cc2F)n(-c2ccccc2)n1,10 DSS,6.1 DSS,7 DSS,6.6 DSS,3.4 DSS,4.6 DSS
O[C@H]1CC[C@H](Nc2ncc3nc(Nc4c(F)cc(F)cc4F)n([C@H]4CCOC4)c3n2)CC1 [Tanzisertib],2 DSS,0 DSS,0.2 DSS,1.4 DSS,0 DSS,1 DSS
Nc1cccc2c1C(=O)N(C1CCC(=O)NC1=O)C2=O (configuration not stated) [Pomalidomide],0 DSS,0 DSS,0 DSS,0 DSS,0 DSS,0 DSS
COCCOc1cnc2ccn([C@H](C)c3nnc4c(F)cc(-c5cnn(C)c5)cn34)c(=O)c2c1 [AMG-337],0 DSS,0 DSS,0 DSS,0 DSS,0 DSS,0 DSS
COc1cc2c(cc1OCCCN1CCCC1)N=C(N)C21CCC1 [A-366],2.1 DSS,0.5 DSS,0 DSS,4.1 DSS,0 DSS,0.3 DSS
Cn1ncc(Cl)c1-c1cc(C(=O)N[C@H](CN)Cc2cccc(F)c2)sc1Cl [Afuresertib],1.1 DSS,0 DSS,0 DSS,0.3 DSS,0 DSS,0 DSS
